# Results published in patent US9289446B2, “Myocardial perfusion imaging methods and compositions” (GILEAD SCIENCES, INC., priority 2002, dated 2016).
# Experiments:
# [1] = Solubility of CVT-3146 in water and in MBA-containing composition; assay type: physicochemical; settings: methylboronic acid co-solvent, dependence on pH
# Procedure: A preferred A2A receptor agonist of this invention is CVT-3146. CVT-3146 has solubility in water of about 50 micrograms/mL. Therefore, CVT-3146 can be dissolved and administered in water so long as the desired weight amount of CVT-3146 can be administered in an acceptable volume. For example, a preferred dose of about 400 micrograms can be administered in 8 mL of water. If this volume is too great for administration purposes, or if the pharmaceutical composition will be stored at other than room temperature (RT), then additional ingredients can be added to the composition to increase the solubility of CVT-3146 in the composition and/or to provide the resulting pharmaceutical composition with other improved properties such as improved stability and storage properties. Pharmaceutical compositions of this invention that include CVT-3146 may include up to about 1 milligram/mL of CVT-3146. It is preferred that pharmaceutical compositions including CVT-3146 include from about 50 to about 250 micrograms/mL, and more preferably from about 50 to 150 micrograms/mL of CVT-3146.
# In order to improve their solubility and storage properties, A2A receptor agonists of this invention can be administered in a pharmaceutical composition including a methylboronic acid (MBA) co-solvent. The methylboronic acid is added to the pharmaceutical composition to improve agonist solubility and shelf life. […]
# [2] = tested on: coronary blood flow velocity; assay: Example 2: dose-ranging study of CVT-3146 IV bolus as coronary vasodilator (coronary flow velocity, heart rate, blood pressure, adverse events); assay type: in vivo, human
# Text: This example is a study performed to determine the range of dosages over which the selective A2A receptor agonist, CVT-3146 can be administered and be effective as a coronary vasodilator.
# The study included patients undergoing a clinically indicated coronary catheterization with no more than a 70% stenosis in any coronary artery and no more than a 50% stenosis of the study vessel had CBFv determined by Doppler flow wire. Study subject were selected after measuring baseline and peak CBFv after an intracoronary (IC) injection of 18 μg of Ado. 36 subjects were identified as meeting the study criteria of having a peak to baseline CBFv ration of ≧2.5 in response to Adenosine,
# CVT-3146 was administered to the study subjects by IV bolus in less that 10 seconds in amounts ranging from 10 μg to 500 μg.
# The effectiveness of both compounds was measured by monitoring coronary flow velocity. Other coronary parameters that were monitored included heart rate and blood pressure. These parameters were measured in order to evaluate the time to peak dose response, the magnitude of the dose response and the duration of the dose response. Adverse events were also monitored. Coronary blood flow velocity was measured at the left anterior descending coronary artery (LAD) or left circumflex coronary artery (LCx). The velocity measurements were taken by following standard heart catheterization techniques and inserting a 0.014 inch Doppler-tipped Flowire into the LAD or LCx vessel and thereafter monitoring blood flow velocity. In addition, hemodynamic and electrocardiographic measurements were recorded continuously.
# Overall, 36 human subjects (n=36) were evaluated. Of the 36, 18 were female and 18 were male. Their mean age was 53.4 and they ranged from 24-72 years in age. Of the 36 subjects evaluated, the LAD vessel of 31 subjects was monitored, and the LCx vessel of 5 subjects was monitored. The following doses (μg) of CVT-3146 were given to the subjects in a single iv bolus: 10 (n=4); 30 (n=6); 100 (n=4); 300 (n=7); 400 (n=9); 500 (n=6).
# [3] = Example 3: pharmacokinetic profile of CVT-3146 in healthy volunteers after single IV bolus (three-compartment model); assay type: in vivo; settings: male, human, plasma, Total (doses 1-30 μg/kg), N=22, mean, read-out: VSS (volume of distribution at steady state)
# Procedure: This Example is a study performed to evaluate (1) the maximum tolerated dose of CVT-3146 and (2) the pharmacokinetic profile of CVT-3146 in healthy volunteers, after a single IV bolus dose.
# The study was performed using thirty-six healthy, non-smoking male subjects between the ages of 18 and 59 and within 15% of ideal body weight.
# CVT-3146 was administered as an IV bolus (20, seconds) in ascending doses of […], 10, 20, and 30 μg/kg.
# Pharmacokinetics: • Plasma samples were drawn during supine phase (Days 1 and 2) at 0, 1, 2, 3, 4, 5, 7, 10, 15, 20, 30, 45 minutes after dosing and at 1, 1.5, 2, 4, 6, 8, 12 and 24 hours after dosing. Urine was collected for 24 hours for CVT-3146 excretion.
# A three-compartment open model was fit to the data using observed Tmax (1-4 minutes) as the duration of a zero-order infusion. Reliable parameter estimates were obtained for dose of 1-30 μg/kg. Parameters are summarized in the following (Table 2): […]
# [4] = tested on: myocardial ischemia detection (SPECT MPI); assay: Example 6: stress/rest SPECT myocardial perfusion imaging, CVT-3146 versus adenosine; assay type: in vivo, human; settings: 400 mcg vs 500 mcg
# Text: Pharmacologic stress SPECT myocardial perfusion imaging (MPI) with adenosine (A) is a well-accepted technique, with excellent diagnostic and prognostic value and proven safety. However, side effects are common and AV nodal block and severe flushing are poorly tolerated. Agents such as CVT-3146 selectively act upon the A2A adenosine receptor and avoid stimulation of other receptor subtypes which may prevent such adverse reactions.
# To determine the ability of CVT-3146 to produce coronary hyperemia and accurately detect CAD, 35 subjects (26 men, 9 women; 67±10 years) underwent both A and CVT-3146 stress/rest MPI, with 10.0±9.1 days between studies. […] CVT-3146 [400 mcg (n=18), 500 mcg (n=17)] was administered as an IV bolus immediately followed by a saline flush, and then a Tc-99m radiopharmaceutical [sestamibi (n=34), tetrofosmin (n=1)]. SPECT images were uniformly processed, intermixed with control studies (normal and fixed-only defects), and interpreted by three observers in a blinded fashion using a 17-segment model. Quantitative analysis was also performed using 4D MSPECT. In addition to three separate readings, a consensus interpretation was performed and then a direct, same-screen comparison of A and CVT-3146 images undertaken to determine relative differences, using 5 regions per study.
structure (smiles),measurement,setting,value
"CNC(=O)c1cnn(-c2nc(N)c3ncn([C@@H]4O[C@H](CO)[C@@H](O)[C@H]4O)c3n2)c1 [CVT-3146, (1-{9-[(4S,2R,3R,5R)-3,4-dihydroxy-5-(hydroxymethyl)oxolan-2-yl]-6-aminopurin-2-yl}pyrazol-4-yl)-N-methylcarboxamide]",solubility in a pharmaceutical composition including MBA,[1],tends to decrease as the composition pH drops towards neutral
same,time of maximum decrease in diastolic BP after dosing,[2]; 400 μg IV bolus,about 1 minute
same,time of maximum decrease in systolic BP after dosing,[2]; 400 μg IV bolus,about 1 minute
same,time of maximum increase in heart rate after dosing,[2]; 400 μg IV bolus,about 1 minute
same,peak effects compared with adenosine,[2]; doses above about 100 μg,equivalent to 18 μg adenosine administered IC
same,Vd,[3],75.5 L
same,dose-dependent effect on ischemia detection,[4],No dose-dependent effect
